Reference: ChEMBL document CHEMBL1671627, “Increasing trends in antimicrobial resistance among clinically important anaerobes and Bacteroides fragilis isolates causing nosocomial infections: emerging resistance to carbapenems” (2008)
≈ marks a conversion by molar mass, not a printed value.

Key:
Fusobacterium nucleatum [1] = assay: Antibacterial activity against Fusobacterium nucleatum by CLSI agar dilution method; assay type: functional
Bacteroides caccae [2] = assay: Antibacterial activity against beta-lactamase producing Bacteroides caccae assessed as resistant isolates by CLSI agar dilution method; assay type: functional
Bacteroides uniformis [3] = assay: Antibacterial activity against beta-lactamase producing Bacteroides uniformis assessed as susceptible isolates by CLSI agar dilution method; assay type: functional
Clostridium tertium [4] = assay: Antibacterial activity against beta-lactamase producing Clostridium tertium assessed as susceptible isolates by CLSI agar dilution method; assay type: functional
Clostridium tertium [5] = assay: Antibacterial activity against beta-lactamase producing Clostridium tertium assessed as resistant isolates by CLSI agar dilution method; assay type: functional
[6] = tested on: Clostridium paraputrificum; assay: Antibacterial activity against beta-lactamase producing Clostridium paraputrificum by CLSI agar dilution method; assay type: functional
[7] = tested on: Bacteroides thetaiotaomicron; assay: Antibacterial activity against beta-lactamase producing Bacteroides thetaiotaomicron assessed as susceptible isolates by CLSI agar dilution method; assay type: functional
Veillonella parvula = assay: Antibacterial activity against Veillonella parvula by CLSI agar dilution method; assay type: functional
Finegoldia magna [8] = assay: Antibacterial activity against beta-lactamase producing Finegoldia magna by CLSI agar dilution method; assay type: functional
Parvimonas micra [9] = assay: Antibacterial activity against beta-lactamase producing Micromonas micros by CLSI agar dilution method; assay type: functional
Prevotella bivia [10] = assay: Antibacterial activity against Prevotella bivia assessed as susceptible isolates by CLSI agar dilution method; assay type: functional
Prevotella intermedia [11] = assay: Antibacterial activity against Prevotella intermedia assessed as resistant isolates by CLSI agar dilution method; assay type: functional
[12] = tested on: Fusobacterium necrophorum; assay: Antibacterial activity against Fusobacterium necrophorum assessed as resistant isolates by CLSI agar dilution method; assay type: functional
Clostridium tertium [13] = assay: Antibacterial activity against beta-lactamase producing Clostridium tertium by CLSI agar dilution method; assay type: functional
Fusobacterium varium [14] = assay: Antibacterial activity against Fusobacterium varium by CLSI agar dilution method; assay type: functional
Phocaeicola vulgatus [15] = assay: Antibacterial activity against beta-lactamase producing Bacteroides vulgatus assessed as susceptible isolates by CLSI agar dilution method; assay type: functional
[16] = tested on: Peptostreptococcus anaerobius; assay: Antibacterial activity against beta-lactamase producing Peptostreptococcus anaerobius assessed as resistant isolates by CLSI agar dilution method; assay type: functional
[17] = tested on: Peptoniphilus asaccharolyticus; assay: Antibacterial activity against beta-lactamase producing Peptoniphilus asaccharolyticus assessed as susceptible isolates by CLSI agar dilution method; assay type: functional
Fusobacterium mortiferum [18] = assay: Antibacterial activity against Fusobacterium mortiferum assessed as susceptible isolates by CLSI agar dilution method; assay type: functional
Fusobacterium mortiferum [19] = assay: Antibacterial activity against Fusobacterium mortiferum by CLSI agar dilution method; assay type: functional
[20] = tested on: Peptostreptococcus anaerobius; assay: Antibacterial activity against beta-lactamase producing Peptostreptococcus anaerobius by CLSI agar dilution method; assay type: functional
[21] = tested on: Prevotella melaninogenica; assay: Antibacterial activity against Prevotella melaninogenica assessed as resistant isolates by CLSI agar dilution method; assay type: functional
Clostridium septicum [22] = assay: Antibacterial activity against beta-lactamase producing Clostridium septicum assessed as resistant isolates by CLSI agar dilution method; assay type: functional
Fusobacterium mortiferum [23] = assay: Antibacterial activity against Fusobacterium mortiferum assessed as resistant isolates by CLSI agar dilution method; assay type: functional
Prevotella buccae [24] = assay: Antibacterial activity against Prevotella buccae assessed as susceptible isolates by CLSI agar dilution method; assay type: functional, Segatella buccae
[25] = tested on: Prevotella melaninogenica; assay: Antibacterial activity against Prevotella melaninogenica by CLSI agar dilution method; assay type: functional
Fusobacterium nucleatum [26] = assay: Antibacterial activity against Fusobacterium nucleatum assessed as resistant isolates by CLSI agar dilution method; assay type: functional
[27] = tested on: Peptoniphilus asaccharolyticus; assay: Antibacterial activity against beta-lactamase producing Peptoniphilus asaccharolyticus assessed as resistant isolates by CLSI agar dilution method; assay type: functional
Bacteroides uniformis [28] = assay: Antibacterial activity against beta-lactamase producing Bacteroides uniformis assessed as resistant isolates by CLSI agar dilution method; assay type: functional
[29] = tested on: Bacteroides thetaiotaomicron; assay: Antibacterial activity against beta-lactamase producing Bacteroides thetaiotaomicron assessed as resistant isolates by CLSI agar dilution method; assay type: functional
Prevotella bivia [30] = assay: Antibacterial activity against Prevotella bivia assessed as resistant isolates by CLSI agar dilution method; assay type: functional
Bacteroides caccae [31] = assay: Antibacterial activity against beta-lactamase producing Bacteroides caccae by CLSI agar dilution method; assay type: functional
[32] = tested on: Peptostreptococcus anaerobius; assay: Antibacterial activity against beta-lactamase producing Peptostreptococcus anaerobius assessed as susceptible isolates by CLSI agar dilution method; assay type: functional
Fusobacterium varium [33] = assay: Antibacterial activity against Fusobacterium varium assessed as susceptible isolates by CLSI agar dilution method; assay type: functional
Phocaeicola vulgatus [34] = assay: Antibacterial activity against beta-lactamase producing Bacteroides vulgatus assessed as resistant isolates by CLSI agar dilution method; assay type: functional
Parvimonas micra [35] = assay: Antibacterial activity against beta-lactamase producing Micromonas micros assessed as resistant isolates by CLSI agar dilution method; assay type: functional
Clostridium perfringens = assay: microbe, parasite or virus in culture; assay type: functional
Prevotella intermedia [36] = assay: Antibacterial activity against Prevotella intermedia by CLSI agar dilution method; assay type: functional
Prevotella bivia [37] = assay: Antibacterial activity against Prevotella bivia by CLSI agar dilution method; assay type: functional
Clostridium septicum [38] = assay: Antibacterial activity against beta-lactamase producing Clostridium septicum assessed as susceptible isolates by CLSI agar dilution method; assay type: functional
Phocaeicola vulgatus [39] = assay: Antibacterial activity against beta-lactamase producing Bacteroides vulgatus by CLSI agar dilution method; assay type: functional
Finegoldia magna [40] = assay: Antibacterial activity against beta-lactamase producing Finegoldia magna assessed as susceptible isolates by CLSI agar dilution method; assay type: functional
Bacteroides caccae [41] = assay: Antibacterial activity against beta-lactamase producing Bacteroides caccae assessed as susceptible isolates by CLSI agar dilution method; assay type: functional
Bacteroides fragilis [42] = assay: Antibacterial activity against Bacteroides fragilis by CLSI agar dilution method; assay type: functional
[43] = tested on: Bacteroides thetaiotaomicron; assay: Antibacterial activity against beta-lactamase producing Bacteroides thetaiotaomicron by CLSI agar dilution method; assay type: functional
Parvimonas micra [44] = assay: Antibacterial activity against beta-lactamase producing Micromonas micros assessed as susceptible isolates by CLSI agar dilution method; assay type: functional
Clostridium septicum [45] = assay: Antibacterial activity against beta-lactamase producing Clostridium septicum by CLSI agar dilution method; assay type: functional
Fusobacterium varium [46] = assay: Antibacterial activity against Fusobacterium varium assessed as resistant isolates by CLSI agar dilution method; assay type: functional
Prevotella buccae [47] = assay: Antibacterial activity against Prevotella buccae by CLSI agar dilution method; assay type: functional; conditions: Segatella buccae
[48] = tested on: Fusobacterium necrophorum; assay: Antibacterial activity against Fusobacterium necrophorum by CLSI agar dilution method; assay type: functional
Bacteroides fragilis [49] = assay: Antibacterial activity against Bacteroides fragilis assessed as resistant isolates by CLSI agar dilution method; assay type: functional
[50] = tested on: Fusobacterium necrophorum; assay: Antibacterial activity against Fusobacterium necrophorum assessed as susceptible isolates by CLSI agar dilution method; assay type: functional
[51] = tested on: Peptoniphilus asaccharolyticus; assay: Antibacterial activity against beta-lactamase producing Peptoniphilus asaccharolyticus by CLSI agar dilution method; assay type: functional
Bacteroides fragilis [52] = assay: Antibacterial activity against Bacteroides fragilis assessed as susceptible isolates by CLSI agar dilution method; assay type: functional
Finegoldia magna [53] = assay: Antibacterial activity against beta-lactamase producing Finegoldia magna assessed as resistant isolates by CLSI agar dilution method; assay type: functional
[54] = tested on: Clostridium paraputrificum; assay: Antibacterial activity against beta-lactamase producing Clostridium paraputrificum assessed as resistant isolates by CLSI agar dilution method; assay type: functional
Prevotella intermedia [55] = assay: Antibacterial activity against Prevotella intermedia assessed as susceptible isolates by CLSI agar dilution method; assay type: functional
[56] = tested on: Clostridium paraputrificum; assay: Antibacterial activity against beta-lactamase producing Clostridium paraputrificum assessed as susceptible isolates by CLSI agar dilution method; assay type: functional
[57] = tested on: Prevotella melaninogenica; assay: Antibacterial activity against Prevotella melaninogenica assessed as susceptible isolates by CLSI agar dilution method; assay type: functional
Fusobacterium nucleatum [58] = assay: Antibacterial activity against Fusobacterium nucleatum assessed as susceptible isolates by CLSI agar dilution method; assay type: functional
Bacteroides uniformis [59] = assay: Antibacterial activity against beta-lactamase producing Bacteroides uniformis by CLSI agar dilution method; assay type: functional
Prevotella buccae [60] = assay: Antibacterial activity against Prevotella buccae assessed as resistant isolates by CLSI agar dilution method; assay type: functional, Segatella buccae

Which results are given for `O=C(N[C@H](CO)[C@H](O)c1ccc([N+](=O)[O-])cc1)C(Cl)Cl` [CHLORAMPHENICOL]?
MIC50 (Fusobacterium nucleatum [1]): 2 µg/mL (≈ 6.19 µM); MIC90 (Fusobacterium nucleatum [1]): 2 µg/mL (≈ 6.19 µM); Activity (Bacteroides caccae [2]): 4%; Activity (Bacteroides uniformis [3]): 96%; Activity (Clostridium tertium [4]): 89%; Activity (Clostridium tertium [5]): 0%; MIC50 [6]: 4 µg/mL (≈ 12.4 µM); MIC90 [6]: 8 µg/mL (≈ 24.8 µM); Activity [7]: 97%; MIC (Veillonella parvula): 1 µg/mL (≈ 3.09 µM); MIC (Finegoldia magna [8]): 1 µg/mL (≈ 3.09 µM); MIC50 (Finegoldia magna [8]): 1 µg/mL (≈ 3.09 µM); MIC90 (Finegoldia magna [8]): 4 µg/mL (≈ 12.4 µM); MIC (Parvimonas micra [9]): 1 µg/mL (≈ 3.09 µM); MIC50 (Parvimonas micra [9]): 1 µg/mL (≈ 3.09 µM); MIC90 (Parvimonas micra [9]): 4 µg/mL (≈ 12.4 µM); Activity (Prevotella bivia [10]): 100%; Activity (Prevotella intermedia [11]): 0%; Activity [12]: 4%; MIC50 (Clostridium tertium [13]): 4 µg/mL (≈ 12.4 µM); MIC90 (Clostridium tertium [13]): 8 µg/mL (≈ 24.8 µM); MIC50 (Fusobacterium varium [14]): 2 µg/mL (≈ 6.19 µM); MIC90 (Fusobacterium varium [14]): 2 µg/mL (≈ 6.19 µM); Activity (Phocaeicola vulgatus [15]): 96%; Activity [16]: 6%; Activity [17]: 94%; Activity (Fusobacterium mortiferum [18]): 96%; MIC50 (Fusobacterium mortiferum [19]): 2 µg/mL (≈ 6.19 µM); MIC90 (Fusobacterium mortiferum [19]): 2 µg/mL (≈ 6.19 µM); MIC [20]: 1 µg/mL (≈ 3.09 µM); MIC50 [20]: 1 µg/mL (≈ 3.09 µM); MIC90 [20]: 4 µg/mL (≈ 12.4 µM); Activity [21]: 0%; Activity (Clostridium septicum [22]): 0%; Activity (Fusobacterium mortiferum [23]): 4%; Activity (Prevotella buccae [24]): 100%; MIC50 [25]: 4 µg/mL (≈ 12.4 µM); MIC90 [25]: 8 µg/mL (≈ 24.8 µM); Activity (Fusobacterium nucleatum [26]): 4%; Activity [27]: 6%; Activity (Bacteroides uniformis [28]): 4%; Activity [29]: 0%; Activity (Prevotella bivia [30]): 0%; MIC50 (Bacteroides caccae [31]): 4 µg/mL (≈ 12.4 µM); MIC90 (Bacteroides caccae [31]): 8 µg/mL (≈ 24.8 µM); Activity [32]: 94%; Activity (Fusobacterium varium [33]): 96%; Activity (Phocaeicola vulgatus [34]): 4%; Activity (Parvimonas micra [35]): 6%; MIC50 (Clostridium perfringens): 4 µg/mL (≈ 12.4 µM); MIC90 (Clostridium perfringens): 8 µg/mL (≈ 24.8 µM); MIC50 (Prevotella intermedia [36]): 4 µg/mL (≈ 12.4 µM); MIC90 (Prevotella intermedia [36]): 8 µg/mL (≈ 24.8 µM); MIC50 (Prevotella bivia [37]): 4 µg/mL (≈ 12.4 µM); MIC90 (Prevotella bivia [37]): 8 µg/mL (≈ 24.8 µM); Activity (Clostridium septicum [38]): 89%; MIC50 (Phocaeicola vulgatus [39]): 4 µg/mL (≈ 12.4 µM); MIC90 (Phocaeicola vulgatus [39]): 8 µg/mL (≈ 24.8 µM); Activity (Finegoldia magna [40]): 94%; Activity (Bacteroides caccae [41]): 96%; MIC50 (Bacteroides fragilis [42]): 4 µg/mL (≈ 12.4 µM); MIC90 (Bacteroides fragilis [42]): 8 µg/mL (≈ 24.8 µM); MIC [43]: 4 µg/mL (≈ 12.4 µM); MIC50 [43]: 4 µg/mL (≈ 12.4 µM); MIC90 [43]: 8 µg/mL (≈ 24.8 µM); Activity (Parvimonas micra [44]): 94%; MIC50 (Clostridium septicum [45]): 4 µg/mL (≈ 12.4 µM); MIC90 (Clostridium septicum [45]): 8 µg/mL (≈ 24.8 µM); Activity (Fusobacterium varium [46]): 4%; MIC50 (Prevotella buccae [47]): 4 µg/mL (≈ 12.4 µM); MIC90 (Prevotella buccae [47]): 8 µg/mL (≈ 24.8 µM); MIC50 [48]: 2 µg/mL (≈ 6.19 µM); MIC90 [48]: 2 µg/mL (≈ 6.19 µM); Activity (Bacteroides fragilis [49]): 3%; Activity [50]: 96%; MIC [51]: 1 µg/mL (≈ 3.09 µM); MIC50 [51]: 1 µg/mL (≈ 3.09 µM); MIC90 [51]: 4 µg/mL (≈ 12.4 µM); Activity (Bacteroides fragilis [52]): 97%; Activity (Finegoldia magna [53]): 6%; Activity [54]: 0%; Activity (Prevotella intermedia [55]): 100%; Activity [56]: 89%; Activity [57]: 100%; Activity (Fusobacterium nucleatum [58]): 96%; MIC50 (Bacteroides uniformis [59]): 4 µg/mL (≈ 12.4 µM); MIC90 (Bacteroides uniformis [59]): 8 µg/mL (≈ 24.8 µM); Activity (Prevotella buccae [60]): 0%
